Paper PMC6213633, “Induction of ATP Release, PPIX Transport, and Cholesterol Uptake by Human Red Blood Cells Using a New Family of TSPO Ligands” (International Journal of Molecular Sciences, 2018)
Where two headings read alike, the source gives them in different places.

Tests used:
[1] = target: T1, TSPO2-expressing RBC membranes (Homo sapiens, UniProt Q5TGU0); assay: (3H) PK 11195 displacement binding on RBCs; parameters: endogenous in cells; host or cells: human red blood cells purified from fresh blood of healthy volunteers
T1 sequence (Q5TGU0 1-170): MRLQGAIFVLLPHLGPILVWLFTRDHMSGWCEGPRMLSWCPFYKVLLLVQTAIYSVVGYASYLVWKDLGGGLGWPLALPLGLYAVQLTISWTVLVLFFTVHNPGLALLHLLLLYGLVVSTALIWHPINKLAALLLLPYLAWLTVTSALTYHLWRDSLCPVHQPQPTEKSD
Protocol: The affinity of the ligands for the RBC membranes was assessed by typical displacement experiments. RBCs were exposed to 10 nM (^3H) PK 11195 and increasing concentrations of non-radiolabeled TSPO ligands.
RBCs were washed twice in phosphate buffer saline (PBS) (pH 7.4). Samples were incubated in a final incubation volume of 0.3 mL, in the presence of (^3H) PK 11195 (Perkin Elmer, Courtaboeuf, France; 83.5 Ci/mmol) and increasing concentrations of unlabeled TSPO ligands, at room temperature (RT). After 30 min incubation, assays were stopped by filtration through Whatman GF/C filters. Radioactivity trapped on the filters was determined by liquid scintillation counting (Tri-Carb 2800TR, Perkin-Elmer, Courtaboeuf, France).

human red blood cells [2] = assay: ATP release from RBCs (luciferase luminometry); type: cell-based; conditions: for induction of ATP release (comparison between ligands): 10 or 30 µM ligand, 37 °C, 10% hematocrit; for ligand-induced ATP release in presence of VDAC blocker Bcl-XLBH4: Bcl-XLBH4 10 µM; for ligand-induced ATP release in presence of pannexin-1 inhibitors: carbonexolone 10 µM or probenecid 10 µM
Protocol: Figure 6 TSPO ligand-induced ATP release. ATP release from human red blood cells was measured at 37 °C, 10% Hematocrit, as described in material and methods. Values are the ratio between extracellular ATP (ATPe) levels after and before the addition of TSPO ligands. […] Results are expressed as means ± SEM and considered different from basal (vehicle, unstimulated) values when * p < 0.05; ** p < 0.01 or from those incubated in the presence of Bcl-XLBH4 when ^# p < 0.05 and ^## p < 0.01; N = 7.
Extracellular ATP (ATPe) concentration was measured by quantitative luminometry using firefly luciferase, which catalyzes the oxidation of luciferin in the presence of ATP to produce light as previously described. The ATPe concentration was determined at discrete times (offline). Changes in [ATPe] over time were used to estimate ATP release from RBCs.
10 µL of RBCs at 10% hematocrit were incubated for 10 min, at 37 °C, in the presence of the ligand, or of an equal vehicle volume, with 30 µL of MKB medium. At discrete times, samples were centrifuged at 450× g for 3 min, at RT. Paired samples were taken to assess ATPe and hemolysis. The supernatants were stored at −20 °C, prior to the analysis. Then, 4.5 µL of the supernatant samples were added to 45 µL of the luminometry mix (MKB medium containing 0.01 µM luciferase, 0.2 mM luciferin, and 0.1 mg/mL of Coenzyme A) and placed in the assay chamber of the luminometer to determine the light intensity. At the end of the incubations, the time course of light emission was transformed into the ATPe concentration versus time using a calibration curve, with ATP stock solutions ranging from 1 to 50 µM. The results were expressed as ΔATPe (i.e., the ratio of [ATPe] before and after the addition of a given stimulus).
The increase in [ATPe] due to regulated ATP release was calculated by taking the experimentally-measured [ATPe] and subtracting the estimated [ATPe] due to hemolysis. Except where otherwise stated, the results of ATP release experiments reflected the ATP release from non-lytic origin.

[3] = Hemolysis induced by TSPO ligands (Hb release, absorption at 405 nm); type: cell-based; conditions: human, Hb released, mean ± SEM, N = 4, read-out: Hemolysis induced by TSPO ligands treatment
Protocol: Hemolysis leads to hemoglobin (Hb) release into the extracellular milieu, where the Hb content can be quantified by monitoring light absorption, at 405 nm. Using this procedure, we previously observed that the amount of Hb was proportional to the amount of lysed RBCs. The Hb content of the samples was determined as described above. Then, the amount of lytic ATP contributing to [ATPe] was estimated from the total amount of hemolysis cells (calculated as described above) and the intracellular ATP content of the RBCs, which under the experimental conditions was 148 pmol ATP per 10^6 RBCs, as previously reported by our group.

[4] = test system: P. falciparum-infected RBCs; assay: Sorbitol-induced hemolysis in infected RBCs; type: cell-based, human; conditions: 50 µM ligand
Protocol: Figure 4 Sorbitol-induced hemolysis is modulated by the TSPO ligands in infected red blood cells. Infected RBCs at 2 to 5 % parasitemia were washed three times in a culture medium, without serum, and resuspended at 50% hematocrit in a media containing 10 μM (A) or 50 μM (B) TSPO ligands. Hemolysis was quantified at several time-points, by absorption at 540 nm wavelength. Data are presented as mean ± SEM; N = 4. Differences between each ligand and control condition (vehicle) were considered significant when p < 0.01.
Sorbitol hemolysis assays were carried as previously described using hemoglobin release to estimate lysis time. Monoexponential functions were fitted to the data from the sorbitol-induced hemolysis (%) (Figure 4), at different times of exposure to the ligands. Half time values (t1/2) for hemolysis were then calculated as t1/2= ln (2)/k, where k is the rate coefficient of the exponential curve.

human red blood cells [5] = test system: human red blood cells; parameters: method as in PMID 30061676; conditions: cited from earlier work
[6] = test system: healthy and P. falciparum-infected RBCs; assay: TopFluor Cholesterol uptake by RBCs (flow cytometry); type: cell-based, human; conditions: 50 µM ligand; for effect on cholesterol uptake: healthy and infected RBCs
Protocol: Figure 5 Cholesterol uptake induced by TSPO ligands. Healthy (A) or infected red blood cells, at 2 to 5% parasitemia (B) were incubated in the presence of TopFluor Cholesterol and 50 µM of TSPO ligands. Cholesterol uptake was assessed at different time points by flow cytometry. MFI values were normalized to vehicle treated cells. Data are presented as mean ± SEM; N = 4. Differences between each ligand and control condition (vehicle) were considered significant when * p < 0.05.
Cholesterol uptake was measured using TopFluor Cholesterol and 50 µM of TSPO ligands. Cholesterol uptake was assessed at different time points by flow cytometry. Mean Fluorescent Intensity (MFI) values were normalized to vehicle treated cells.
(§1) Fluorescence measurements in all samples of the P. falciparum’s viability, ZnPPIX uptake, cholesterol uptake, and ROS accumulation assays, were performed with a FACSCanto (BD Biosciences, Rungis, France) and further analyzed with Flowjo-3 software. Infected-RBCs were distinguished from non-infected ones contained in the same culture by TOPRO-3 signaling (1/2, 500), with the negative level established with the same non-infected RBCs used for parasite culture. ZnPPIX (Ex.: 488 nm, Em.: 585/42 nm), TopFluor Cholesterol (Ex.: 495 nm, Em.: 507 nm) and DCFDA (Ex.: 488 nm, Em.: 530/30 nm) levels were measured in both the infected and non-infected RBC populations, results were normalized to the corresponding solvent for each ligand.

[7] = test system: P. falciparum strain FCR3; assay: P. falciparum growth inhibition (flow cytometry of parasitemia); type: cell-based, Plasmodium falciparum; conditions: 10 and 50 µM
Protocol: Figure 1 TSPO ligands inhibited the P. falciparum growth. Infected RBCs were diluted to 1% parasitemia, and maintained at 1–5%, by dilution, for […]. Percentages of growth-inhibition were obtained, after two parasite cycles, by the flow cytometry analysis of parasitemia, and normalized to the control condition (solvent-treated cells). Data are presented as the mean ± SEM; N = 4. Differences between the control condition and the treatment were considered significant at ** p < 0.01; *** p < 001.
P. falciparum strain FCR3 culture was performed in RPMI 1640 medium containing 10% Albumax, at 5% hematocrit, in a 5% O2, 3% CO2 atmosphere. […] Parasitemia was determined after 48 h and 96 h (after one or two complete parasite’s cycles, respectively) by flow cytometry (FACS), as previously described.
as §1, with “Infected-RBCs were distinguished from non-infected ones contained in the same culture by TOPRO-3 signaling (1/2, 500), with the negative level established with the same non-infected RBCs used for parasite culture.” left out

[8] = test system: healthy and P. falciparum-infected RBCs; assay: ZnPPIX uptake in healthy and infected RBCs (flow cytometry); type: cell-based, human; conditions: 20 µM ZnPPIX, 50 µM ligand
Protocol: Figure 2 ZnPPIX uptake in healthy and infected RBCs induced by TSPO ligands. Healthy RBC (A) and infected RBC (B) at 2 to 5% parasitemia were incubated in the presence of 20 µM ZnPPIX and 50 µM TSPO ligands, and the uptake of ZnPPIX was assessed at different time points by flow cytometry. MFI values were normalized to background levels for the control and the ligand-treated conditions. Data are presented as the mean ± SEM; N = 7. Statistical analyses were performed for each ligand and the control condition. Differences were considered significant when * p < 0.05; ** p < 0.01; *** p < 0.001.
P. falciparum cultures were incubated at 2–5% parasitemia (synchronized cultures, ring and trophozoite stages) in 200 µL of RPMI 10% Albumax containing 20 µM ZnPPIX. […] Cultures were kept at 37 °C, in the dark, for 3 to 18 h and further analyzed by FACS.
as §1, with “Infected-RBCs were distinguished from non-infected ones contained in the same culture by TOPRO-3 signaling (1/2, 500), with the negative level established with the same non-infected RBCs used for parasite culture.” left out

[9] = test system: TSPO1-enriched rat heart microsomes; parameters: method as in doi:10.1002/slct.201701565; conditions: cited from earlier work
[10] = displacement of 10 nM (3H) PK 11195, mean ± SEM, N = 3, read-out: IC50, TSPO ligands' affinity for RBC membranes

For `CN1C(=O)CN=C(c2ccc(Cl)cc2)c2cc(Cl)ccc21` [Ro5-4864, reference compound], the IC50 [1] was 1500 ± 600 nM, the “induction of ATP release (comparison between ligands)” value (human red blood cells [2]) was “a bit lower” and the “ligand-induced ATP release in presence of VDAC blocker Bcl-XLBH4” value (human red blood cells [2]) was “significantly inhibited”. For the same compound, the “ligand-induced ATP release in presence of pannexin-1 inhibitors” value (human red blood cells [2]) was “not affected”, the hemolysis [3] was 0.68 ± 0.16% and the “t1/2 of sorbitol-induced hemolysis relative to control samples” value [4] was “eight-fold higher”. The “non-lytic ATP efflux from RBCs” value (human red blood cells [5]) was “triggered non-lytic ATP efflux” and the “effect on cholesterol uptake” value [6] was “did not alter cholesterol uptake”.

With `CN(C)C(=O)Cc1nn(-c2ccccc2)c(=O)c2c1c1ccc(Cl)cc1n2C` [SSR-180,575, reference compound] the hemolysis ([3]; red blood cells (RBCs)) was 0.7 ± 0.08%, the “effect on cholesterol uptake” value [6] was “did not alter cholesterol uptake” and the “anti-plasmodium activity (comparison between ligands)” value [7] was “highest anti-plasmodium activity trend”.

In the case of `CCN(CC)C(=O)Cn1c(=O)n2cc(-c3ccco3)nc2c2ccccc21` [NCS1018, N,N-Diethyl-2-(2-(furan-2-yl)-5-oxomidazo[1-c]quinazolin-6(5H)-yl)acetamide], the IC50 [1, 10] is reported as 590 ± 70 nM, the “induction of ATP release (comparison between ligands)” value (human red blood cells [2]) is reported as “most efficient in inducing ATP release” and the “ligand-induced ATP release in presence of VDAC blocker Bcl-XLBH4” value (human red blood cells [2]) is reported as “significantly inhibited”. For the same compound, the “ligand-induced ATP release in presence of pannexin-1 inhibitors” value (human red blood cells [2]) was “not affected”, the hemolysis ([3]; red blood cells (RBCs)) was 0.72 ± 0.06% and the “t1/2 of sorbitol-induced hemolysis relative to control samples” value [4] was “eight-fold higher”. The “non-lytic ATP efflux from RBCs” value (human red blood cells [5]) was “triggered non-lytic ATP efflux”, the “ZnPPIX uptake increase (effect in words)” value [8] was “no significant effect” and the “effect on cholesterol uptake” value [6] was “did not alter cholesterol uptake”.

In the case of `CCC(C)N(C)C(=O)c1cc2ccccc2c(-c2ccccc2Cl)n1` (stereo not drawn) [PK 11195, reference compound], the hemolysis [3] is reported as 0.6 ± 0.06% and the “t1/2 of sorbitol-induced hemolysis relative to control samples” value [4] is reported as “three-fold higher”.

For `CC(C)CCC[C@@H](C)[C@H]1CC[C@H]2[C@@H]3CCC4=CC(=NO)CC[C@]4(C)[C@H]3CC[C@]12C` [TRO19622], the “non-lytic ATP efflux from RBCs” value (human red blood cells [5]) is listed as “triggered non-lytic ATP efflux”.

In the case of `CCCN(CCC)C(=O)Cn1c(=O)n2cc(-c3ccccc3)nc2c2ccccc21` [NCS1026, N,N-dipropyl-2-(5-oxo-2-phenylimidazo[1-c]quinazolin-6(5H)-yl)acetamide], the IC50 [1, 10] is reported as 280 ± 60 nM, the hemolysis ([3]; red blood cells (RBCs)) is reported as 0.52 ± 0.06% and the “t1/2 of sorbitol-induced hemolysis relative to control samples” value [4] is reported as “three-fold higher”. For the same compound, the IC50 [9] was 10 nM, the “ZnPPIX uptake increase (effect in words)” value [8] was “no significant effect” and the “inhibition of cholesterol uptake” value ([6]; 1 h of incubation) was 40%. For the same compound, the “inhibition of cholesterol uptake” value ([6]; 5 h of incubation) was 20%.
